How the values were obtained:
Type in all cases: biochemical
CDK7/CycH/Mat1 = CDK7/CycH/Mat1 (Homo sapiens, UniProt P50613); assay: CDK7 Enzymatic Activity Assay (Lance Kinase Activity Assay, FRET); settings: CDK7/CycH/Mat1, 25 μM ATP final; class ranges; read-out: CDK7: IC50 [nM] for CDK7 inhibition
Method in brief: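 Ulight-MBP peptide phosphorylation by CDK7/CycH/Mat1 in HEPES 50 mM pH 7.5, MgCl2, EGTA, DTT, Tween-20; 1 h at room temperature, then EDTA stop with Eu-anti-phospho-MBP antibody for 1 h and TR-FRET read. Compounds in 8-point 1:3 DMSO series; IC50 from sigmoidal dose-response fit.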

CDK9/Cyclin T1 = CDK9/Cyclin T1 (Homo sapiens, UniProt P50750); assay: CDK9 Enzymatic Activity Assay (Lance Kinase Activity Assay, FRET); settings: Table 5B, class symbols per IC50 [nM] ranges of b581; read-out: CDK9: Selectivity of CDK7 inhibition over CDK9 inhibition
Chain of CDK9/Cyclin T1 (P50750 whole entry): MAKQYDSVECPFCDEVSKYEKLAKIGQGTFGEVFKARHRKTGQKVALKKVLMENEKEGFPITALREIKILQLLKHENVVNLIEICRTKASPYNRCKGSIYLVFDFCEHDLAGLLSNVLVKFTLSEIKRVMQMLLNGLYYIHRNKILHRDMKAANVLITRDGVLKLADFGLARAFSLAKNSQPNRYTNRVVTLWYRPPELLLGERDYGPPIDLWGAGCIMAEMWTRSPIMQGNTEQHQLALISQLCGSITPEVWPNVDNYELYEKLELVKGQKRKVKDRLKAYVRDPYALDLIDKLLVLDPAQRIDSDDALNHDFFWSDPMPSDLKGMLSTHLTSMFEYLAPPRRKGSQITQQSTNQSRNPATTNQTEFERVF
Chain of CDK9/Cyclin T1 (O60563 whole entry partner): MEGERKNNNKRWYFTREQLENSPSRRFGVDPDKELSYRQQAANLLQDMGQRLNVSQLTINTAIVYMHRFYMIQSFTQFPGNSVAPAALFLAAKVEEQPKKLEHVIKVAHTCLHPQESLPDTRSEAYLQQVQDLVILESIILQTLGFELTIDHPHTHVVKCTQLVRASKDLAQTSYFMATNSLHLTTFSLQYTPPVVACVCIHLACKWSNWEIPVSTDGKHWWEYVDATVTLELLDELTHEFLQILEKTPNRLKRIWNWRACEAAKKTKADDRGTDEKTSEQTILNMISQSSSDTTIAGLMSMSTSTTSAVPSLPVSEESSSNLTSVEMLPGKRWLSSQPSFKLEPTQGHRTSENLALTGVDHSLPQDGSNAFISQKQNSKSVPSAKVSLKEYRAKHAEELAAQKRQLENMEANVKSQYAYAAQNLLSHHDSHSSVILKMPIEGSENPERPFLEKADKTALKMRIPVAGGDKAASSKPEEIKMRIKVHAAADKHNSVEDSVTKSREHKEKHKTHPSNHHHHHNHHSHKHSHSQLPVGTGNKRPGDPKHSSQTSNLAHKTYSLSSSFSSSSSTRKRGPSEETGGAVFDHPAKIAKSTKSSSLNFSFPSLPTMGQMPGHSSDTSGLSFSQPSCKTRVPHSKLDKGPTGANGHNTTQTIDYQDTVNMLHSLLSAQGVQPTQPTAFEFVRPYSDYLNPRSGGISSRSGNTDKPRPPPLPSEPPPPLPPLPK
Method in brief: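 CDK9/cyclin T1 phosphorylation of a ULight-MBP peptide was run for 1 h at room temperature in pH 7.5 HEPES buffer with MgCl2, EGTA, DTT and Tween-20. It was followed by 1 h with Eu-anti-phospho-MBP antibody (4 nM) in EDTA detection buffer. TR-FRET loss gave IC50 from 8-point, 1:3 sigmoidal dose-response curves.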

CDK2/CycA = target: T1, CDK2/CycA (Homo sapiens, UniProt P24941); assay: CDK2 Enzymatic Activity Assay (Lance Kinase Activity Assay, FRET); settings: Table 5B, class symbols per IC50 [nM] ranges of b581; read-out: CDK2: Selectivity of CDK7 inhibition over CDK2 inhibition
T1 construct: purchased Proqinase
Procedure: This protocol describes how the Lance Kinase Activity Assay was performed to determine IC50 values of compounds of general formula (I) against CDK/Cyclin complexes. The principle behind this enzymatic assay is based upon the phosphorylation of the Ulight-Peptide Substrat. It is detected by using a specific EU-labeled anti-phospho peptide antibody.
Binding of an inhibitor to the kinase prevents phosphorylation of the Ulight-MBP Substrat, resulting in a loss of FRET.
CDK2 Enzymatic Activity Assay
The compounds of general formula (I) exemplary summarized in Table 1 were diluted from a 10 mM DMSO stock solution 1:10 in a total volume of 15 μl DMSO. This compound predilution was then serial diluted 1:3 over 8 steps in DMSO and briefly spun down. Each compound solution was now diluted 1:20 in Enzymatic Buffer (HEPES: 50 mM, pH: 7.5; MgCl2: 10 mM; EGTA: 1 mM; DTT: 2 mM; Tween-20: 0.01%), mixed thoroughly and spun down.
For positive controls, 2 μl of DMSO working solution were mixed with 6 μl CDK2/CycA/substrate working solution and 2 μl ATP working solution. Positive and negative controls were calculated from at least 8 different wells. The 384 well plates were mixed in a Teleshaker plate mixer (Beckman Coulter, Brea, Calif., USA) at 2000 rpm for 40 sec, and incubated for 1 h at room temperature before addition of 10 μl LANCE Detection Buffer (EDTA: […]; Eu-Anti-P-MBP: 4 nM) per well. Plates were mixed in a Teleshaker plate mixer (Beckman Coulter, Brea, Calif., USA) at 2000 rpm for 40 sec, followed by incubation with Detection Buffer for 1 h, and reading. […] IC50 values were determined from the sigmoidal dose response curves with the software Quattro Workflow (Quattro GmbH, Munich, Germany).

Chain of CDK7/CycH/Mat1 (P50613 whole entry): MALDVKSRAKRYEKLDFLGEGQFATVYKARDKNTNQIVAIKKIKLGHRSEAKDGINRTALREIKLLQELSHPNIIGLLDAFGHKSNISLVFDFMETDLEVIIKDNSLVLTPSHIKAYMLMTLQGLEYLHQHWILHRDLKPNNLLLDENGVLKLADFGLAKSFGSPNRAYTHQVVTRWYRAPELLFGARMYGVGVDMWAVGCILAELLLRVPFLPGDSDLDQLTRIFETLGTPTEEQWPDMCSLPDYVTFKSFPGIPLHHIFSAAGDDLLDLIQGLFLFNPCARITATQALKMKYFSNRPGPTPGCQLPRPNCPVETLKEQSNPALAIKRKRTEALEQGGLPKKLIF

SMILES: CC(C)c1cnn2c(NCc3ccccc3-n3cncn3)nc([S+]([O-])C3CCNCC3)nc12 (stereo not drawn) [(X-4), N-(2-(1H-1,2,4-triazol-1-yl)benzyl)-8-isopropyl-2-(piperidin-4-ylsulfinyl)pyrazolo[1,5-a][1,3,5]triazin-4-amine]
- IC50 (CDK7/CycH/Mat1): < 5 nM
- IC50 (CDK9/Cyclin T1): 500 to 2500 nM
- IC50 (CDK2/CycA): 50 to 500 nM

SMILES: CC(C)c1cnn2c(NCc3ccccc3-n3cccn3)nc(OCCN3CCNCC3)nc12 [(VII-124), N-(2-(1H-pyrazol-1-yl)benzyl)-8-isopropyl-2-(2-(piperazin-1-yl)ethoxy)pyrazolo[1,5-a][1,3,5]triazin-4-amine]
- IC50 (CDK7/CycH/Mat1): > 25 nM
- IC50 (CDK9/Cyclin T1): > 2500 nM
- IC50 (CDK2/CycA): > 2500 nM

SMILES: COCCN1CCN(Cc2nc(NCc3ccccc3-n3cccn3)n3ncc(C(C)C)c3n2)CC1 [(XXX-9), N-(2-(1H-pyrazol-1-yl)benzyl)-8-isopropyl-2-((4-(2-methoxyethyl)piperazin-1-yl)methyl)pyrazolo[1,5-a][1,3,5]triazin-4-amine]
- IC50 (CDK7/CycH/Mat1): > 25 nM
- IC50 (CDK9/Cyclin T1): > 2500 nM
- IC50 (CDK2/CycA): > 2500 nM

SMILES: CC(C)c1cnn2c(NCc3ccccc3-n3cccn3)nc(OC3CNCCOC3)nc12 (stereo not drawn) [(VII-122), 2-((1,4-oxazepan-6-yl)oxy)-N-(2-(1H-pyrazol-1-yl)benzyl)-8-isopropylpyrazolo[1,5-a][1,3,5]triazin-4-amine]
- IC50 (CDK7/CycH/Mat1): 10 to 25 nM
- IC50 (CDK9/Cyclin T1): > 2500 nM
- IC50 (CDK2/CycA): 500 to 2500 nM

SMILES: CC(C)c1cnn2c(NCc3ccccc3-n3cccn3)nc(NCCOCCN)nc12 [(VIII-048), N4-(2-(1H-pyrazol-1-yl)benzyl)-N2-(2-(2-aminoethoxy)ethyl)-8-isopropylpyrazolo[1,5-a][1,3,5]triazine-2,4-diamine]
- IC50 (CDK7/CycH/Mat1): 10 to 25 nM
- IC50 (CDK9/Cyclin T1): > 2500 nM
- IC50 (CDK2/CycA): > 2500 nM

SMILES: CC(C)c1cnn2c(NCc3ccccc3-c3ccccc3)nc([S+]([O-])C3CCNCC3)nc12 (stereo not drawn) [(X-3), N-([1,1′-biphenyl]-2-ylmethyl)-8-isopropyl-2-(piperidin-4-ylsulfinyl)pyrazolo[1,5-a][1,3,5]triazin-4-amine]
- IC50 (CDK7/CycH/Mat1): 10 to 25 nM
- IC50 (CDK9/Cyclin T1): > 2500 nM
- IC50 (CDK2/CycA): 500 to 2500 nM

SMILES: CC(C)c1cnn2c(NCc3ccccc3-n3cccn3)nc(C(=O)NCCCN)nc12 [(XII-10), 4-((2-(1H-pyrazol-1-yl)benzyl)amino)-N-(3-aminopropyl)-8-isopropylpyrazolo[1,5-a][1,3,5]triazine-2-carboxamide]
- IC50 (CDK7/CycH/Mat1): > 25 nM
- IC50 (CDK9/Cyclin T1): > 2500 nM
- IC50 (CDK2/CycA): > 2500 nM

SMILES: CC(C)c1cnn2c(NCc3ccccc3-n3cccn3)nc(CN3CC(N4CCC(F)(F)C4)C3)nc12 [(XXX-7), N-(2-(1H-pyrazol-1-yl)benzyl)-2-((3-(3,3-difluoropyrrolidin-1-yl)azetidin-1-yl)methyl)-8-isopropylpyrazolo[1,5-a][1,3,5]triazin-4-amine]
- IC50 (CDK7/CycH/Mat1): > 25 nM
- IC50 (CDK9/Cyclin T1): > 2500 nM
- IC50 (CDK2/CycA): > 2500 nM

SMILES: CC(C)c1cnn2c(NCc3ccccc3OS(C)(=O)=O)nc(O[C@@H]3CCCNC3)nc12 [(VII-147), (R)-2-(((8-isopropyl-2-(piperidin-3-yloxy)pyrazolo[1,5-a][1,3,5]triazin-4-yl)amino)methyl)phenyl methanesulfonate]
- IC50 (CDK7/CycH/Mat1): 5 to 10 nM
- IC50 (CDK9/Cyclin T1): > 2500 nM
- IC50 (CDK2/CycA): 50 to 500 nM

SMILES: CNC1CCN(c2nc(NCc3ccccc3-n3cccn3)n3ncc(C(C)C)c3n2)CC1 [(VIII-25), N-(2-(1H-pyrazol-1-yl)benzyl)-8-isopropyl-2-(4-(methylamino)piperidin-1-yl)pyrazolo[1,5-a][1,3,5]triazin-4-amine]
- IC50 (CDK7/CycH/Mat1): < 5 nM
- IC50 (CDK9/Cyclin T1): 500 to 2500 nM
- IC50 (CDK2/CycA): 50 to 500 nM

SMILES: CC(C)c1cnn2c(NCc3ccccc3-n3cncn3)nc(O[C@@H]3CCNC3)nc12 [(VII-21), (R)-N-(2-(1H-1,2,4-triazol-1-yl)benzyl)-8-isopropyl-2-(pyrrolidin-3-yloxy)pyrazolo[1,5-a][1,3,5]triazin-4-amine]
- IC50 (CDK7/CycH/Mat1): < 5 nM
- IC50 (CDK9/Cyclin T1): 500 to 2500 nM
- IC50 (CDK2/CycA): < 50 nM

SMILES: CC(C)c1cnn2c(NCc3ccccc3OC3CCCC3)nc(O[C@@H]3CCCNC3)nc12 [(VII-095), (R)-N-(2-(cyclopentyloxy)benzyl)-8-isopropyl-2-(piperidin-3-yloxy)pyrazolo[1,5-a][1,3,5]triazin-4-amine]
- IC50 (CDK7/CycH/Mat1): > 25 nM
- IC50 (CDK9/Cyclin T1): > 2500 nM
- IC50 (CDK2/CycA): > 2500 nM

SMILES: CC(C)c1cnn2c(NCc3ccccc3[S+](C)[O-])nc(O[C@@H]3CCCNC3)nc12 (stereo partly drawn) [(VII-152), 8-isopropyl-N-(2-(methylsulfinyl)benzyl)-2-((R)-piperidin-3-yloxy)pyrazolo[1,5-a][1,3,5]triazin-4-amine]
- IC50 (CDK7/CycH/Mat1): 10 to 25 nM
- IC50 (CDK9/Cyclin T1): 500 to 2500 nM
- IC50 (CDK2/CycA): 50 to 500 nM

SMILES: C#CC(C)NC(=O)c1ccccc1CNc1nc(O[C@@H]2CCCNC2)nc2c(C(C)C)cnn12 (stereo partly drawn) [(VII-109), N-(but-3-yn-2-yl)-2-(((8-isopropyl-2-((R)-piperidin-3-yloxy)pyrazolo[1,5-a][1,3,5]triazin-4-yl)amino)methyl)benzamide]
- IC50 (CDK7/CycH/Mat1): 10 to 25 nM
- IC50 (CDK9/Cyclin T1): > 2500 nM
- IC50 (CDK2/CycA): > 2500 nM

SMILES: CC(C)c1cnn2c(NCc3ccccc3OS(=O)C(C)(C)C)nc(O[C@@H]3CCCNC3)nc12 (stereo partly drawn) [(VII-148), 2-(((8-isopropyl-2-((R)-piperidin-3-yloxy)pyrazolo[1,5-a][1,3,5]triazin-4-yl)amino)methyl)phenyl 2-methylpropane-2-sulfinate]
- IC50 (CDK7/CycH/Mat1): < 5 nM
- IC50 (CDK9/Cyclin T1): 50 to 500 nM
- IC50 (CDK2/CycA): 50 to 500 nM

SMILES: CC(C)c1cnn2c(NCc3ccccc3NC(=O)NC3CCCCC3)nc(O[C@@H]3CCCNC3)nc12 [(VII-112), (R)-1-cyclohexyl-3-(2-(((8-isopropyl-2-(piperidin-3-yloxy)pyrazolo[1,5-a][1,3,5]triazin-4-yl)amino)methyl)phenyl)urea]
- IC50 (CDK7/CycH/Mat1): 5 to 10 nM
- IC50 (CDK9/Cyclin T1): > 2500 nM
- IC50 (CDK2/CycA): > 2500 nM

SMILES: CC(C)c1cnn2c(NCc3ccccc3-c3cccs3)nc(O[C@@H]3CCCNC3)nc12 [(VII-12), (R)-8-isopropyl-2-(piperidin-3-yloxy)-N-(2-(thiophen-2-yl)benzyl)pyrazolo[1,5-a][1,3,5]triazin-4-amine]
- IC50 (CDK7/CycH/Mat1): < 5 nM
- IC50 (CDK9/Cyclin T1): 50 to 500 nM
- IC50 (CDK2/CycA): < 50 nM

SMILES: CC(C)c1cnn2c(NCc3ccccc3-c3cccs3)nc(O[C@@H]3CCNC3)nc12 [(VII-13), (R)-8-isopropyl-2-(pyrrolidin-3-yloxy)-N-(2-(thiophen-2-yl)benzyl)pyrazolo[1,5-a][1,3,5]triazin-4-amine]
- IC50 (CDK7/CycH/Mat1): < 5 nM
- IC50 (CDK9/Cyclin T1): 500 to 2500 nM
- IC50 (CDK2/CycA): 50 to 500 nM

SMILES: CC(C)c1cnn2c(NCc3ccccc3N=S(C)(C)=O)nc(O[C@@H]3CCCNC3)nc12 [(VII-151), N-(2-(((8-isopropyl-2-((R)-piperidin-3-yloxy)pyrazolo[1,5-a][1,3,5]triazin-4-yl)amino)methyl)phenyl)-S,S-dimethylsulfoximine]
- IC50 (CDK7/CycH/Mat1): < 5 nM
- IC50 (CDK9/Cyclin T1): > 2500 nM
- IC50 (CDK2/CycA): 500 to 2500 nM

SMILES: CC(C)c1cnn2c(NCc3ccccc3C3=CCCCC3)nc(O[C@@H]3CCCNC3)nc12 [(VII-117), (R)-8-isopropyl-2-(piperidin-3-yloxy)-N-((2′,3′,4′,5′-tetrahydro-[1,1′-biphenyl]-2-yl)methyl)pyrazolo[1,5-a][1,3,5]triazin-4-amine]
- IC50 (CDK7/CycH/Mat1): > 25 nM
- IC50 (CDK9/Cyclin T1): > 2500 nM
- IC50 (CDK2/CycA): > 2500 nM

SMILES: Cc1nccn1-c1ccccc1CNc1nc([S+]([O-])C2CCNCC2)nc2c(C(C)C)cnn12 (stereo not drawn) [(X-5), 8-isopropyl-N-(2-(2-methyl-1H-imidazol-1-yl)benzyl)-2-(piperidin-4-ylsulfinyl)pyrazolo[1,5-a][1,3,5]triazin-4-amine]
- IC50 (CDK7/CycH/Mat1): < 5 nM
- IC50 (CDK9/Cyclin T1): > 2500 nM
- IC50 (CDK2/CycA): 500 to 2500 nM

SMILES: CC(C)c1cnn2c(NCc3ccccc3-c3ccccc3)nc(O[C@@H]3CCCNC3)nc12 [(VII-07), (R)-N-([1,1′-biphenyl]-2-ylmethyl)-8-isopropyl-2-(piperidin-3-yloxy)pyrazolo[1,5-a][1,3,5]triazin-4-amine]
- IC50 (CDK7/CycH/Mat1): < 5 nM
- IC50 (CDK9/Cyclin T1): 50 to 500 nM
- IC50 (CDK2/CycA): 500 to 2500 nM

SMILES: CC(C)c1cnn2c(NCc3ccccc3-n3cccn3)nc(N3CCC4(CCNCC4)C3)nc12 [(VIII-37), N-(2-(1H-pyrazol-1-yl)benzyl)-8-isopropyl-2-(2,8-diazaspiro[4.5]decan-2-yl)pyrazolo[1,5-a][1,3,5]triazin-4-amine]
- IC50 (CDK7/CycH/Mat1): < 5 nM
- IC50 (CDK9/Cyclin T1): > 2500 nM
- IC50 (CDK2/CycA): > 2500 nM

Reference: patent publication US9567345B2, “Pharmaceutically active pyrazolo-triazine derivatives” (LEAD DISCOVERY CENTER GMBH, priority 2012, dated 2017)
